Test results: US10370327B2, “Ionic liquid films with multiple functionalities for surface modification of biomedical alloys” (BOARD OF REGENTS, THE UNIVERSITY OF TEXAS SYSTEM, priority 2014, dated 2019)
Read-outs that look alike come from different tables or passages of the source.

Tests used:
MC3T3-E1 cell line [1] = test: MTT cytotoxicity assay, dose-response in MC3T3-E1 cells; type: cell-based; settings: read-out: Toxicity IC50
Text: Without wishing to be bound by any theory, it is believed that the ionic liquids (ILs) structures prevent the hydrophobic effects of the imidazolium cation and thus cellular uptake by the introduction of a second cationic head. These structures, which are formed by two imidazolium rings linked by an alkyl chain and anionic counterpart, may result in non-toxic compounds because the dicationic structure will not be able to penetrate and alter the physical properties of the lipid bilayer. The ionic liquids were synthesized and performed preliminary studies with the dicationic imidazolium-based IL compounds as described above, and the IC50 values were assessed through MTT assay (Gindri et al., 2014).
The ionic liquids were synthesized and performed preliminary studies with the dicationic imidazolium-based IL compounds as described above, and the IC50 values were assessed through MTT assay (Egorova et al., 2014). The toxicity of ionic liquids was accessed using MC3T3-E1 cell lines. The cells were plated in 6-well plates and after 24 h, cells were treated with media containing a range of concentrations of ionic liquids. All concentrations tested for generation of dose-response curves. A non-linear regression sigmoidal dose-response curve was fitted to each set of values to allow the calculation of IC50 values.

[2] = DLS of TiO2 particles and equimolar TiO2 + ionic liquid; type: physicochemical; settings: for Rh1 hydrodynamic radius: IL + TiO2, relaxation mode 1; for Rh2 hydrodynamic radius: IL + TiO2, relaxation mode 2; for Thickness of IL film on TiO2 particles: difference IL + TiO2 minus TiO2
Method: To evaluate the morphologic characteristics of new structures formed by TiO2+ionic liquid both DLS and SEM techniques were used. […] DLS experiments were performed with TiO2 particles only, and with solutions of equimolar amounts of TiO2+ionic liquid. The hydrodynamic radius (Rh) of pure TiO2 particles and mixture of TiO2+ionic liquid was monitored and compared in order to analyze the formation of new organized phases related to ionic liquid film adhesion on TiO2 particles. […] The value from the difference between the size of TiO2+ionic liquid and TiO2 was used to calculate ionic liquid film thickness formed on TiO2 particles.
Comparing the data between pure TiO2 and the mixtures of [DBMIM]2[Br], [DBMIM]2[BF4] and [DBMIM]2[NTf2], it can be observed that in the first relaxation mode (Rh1) a small difference was detected between the size of the particles, which can be related with the single TiO2 nanoparticles, [DBMIM]2[Br], [DBMIM]2[BF4] and [DBMIM]2[NTf2] dispersed in solution. However, in the second relaxation mode a significant difference was noted between the size of pure TiO2 nanoparticles and TiO2+ionic liquid (Table 6). It was observed that Rh2 tended to increase with ionic liquid presence, which thus indicates film formation on the particles surface. Another interesting characteristic from the DLS results is that film thickness increased with hydrophobicity of anions (FIG. 1), which is in agreement with the trend reported by Ulbricht and Wittmar, 2012.

[3] = Thermal analysis of pure ionic liquid and equimolar mixture with TiO2 nanoparticles; type: physicochemical
Method: In order to evaluate the affinity of ionic liquids with the titanium surface, experiments were conducted with imidazole derived ionic liquids having as contra-ion the anions Br^−, BF4^− and NTf2^−. In the study, TiO2 nanoparticles were used instead of bulk titanium in order to allow for a better understanding of the interaction of the selected ionic liquids with the Ti oxide film (TiO2). Thermal behavior of TiO2 pure (nanoparticles), ionic liquid pure and the equimolar mixture of TiO2 and the different ionic liquids attempted were evaluated. […] Based upon the loss of a glass transition and the introduction of a new melting point for the TiO2 nanoparticle and the [DBMIM]2[NTf2], without wishing to be bound by any theory, it is believed that a more organized structural arrangement is formed (Grindri, et al., 2014).

[4] = system: osteoblast-like cells (MC3T3-E1); test: Cell proliferation (MTT) on IL-coated Ti, osteoblast-like cells; type: cell-based; settings: MC3T3-E1, 1 and 7 days
[5] = system: osteoblast-like cells (MC3T3-E1); test: Alkaline phosphatase activity / osteoblast differentiation on IL-coated Ti; type: cell-based; settings: day 1 and day 7
Text: FIGS. 6A-6F show osteoblast identification through alkaline phosphatase assay. Ti Control on day 1 (FIG. 6A) and day 7 (FIG. 6D) along with IL9 coated Ti shown on day 1 (FIG. 6B) and day 7 (FIG. 6E) are shown. […] Cell differentiation was observed after 7 days on Ti control and IL9 coated Ti in which osteoblast are distinguished from stem cells by the purple color of the stain as indicated by the black arrows. […] As such, these compounds can be considered to be non-toxic to cells while still maintaining anti-microbial properties.
Experiments were performed in which Ti control disks, IL9-coated Ti, and IL12-coated Ti were exposed to gingival epithelial (HGF-1) and osteoblast-like cells (MC3T3-E1) during periods of 1 and 7 days. It was observed that after 1 day both Ti control and IL-coated Ti were covered with a layer of osteoblast-like cells (FIGS. 6A & 6B) illustrating the initial cell attachment on the surface. […] In vitro and in vivo osteoblast cell differentiation can be characterized during a phase denominated matrix maturation. During this period, a high expression of alkaline phosphatase (AP) is observed and can be used as an early differentiation marker to evaluate the differentiation of stem cells into osteoblasts (Shang et al., 2014 and Wang et al., 2012). […]

S. mutans = S. mutans planktonic and biofilm CFU on IL-coated Ti in artificial saliva/BHI; type: cell-based, Streptococcus mutans
Method: To determine if ILs retain antimicrobial activity when applied to Ti, preliminary experiments with two ILs (IL9 and IL12) and S. mutans, an early colonizer. Control Ti, IL9-coated Ti, and IL12-coated Ti were immersed in artificial saliva/brain heart infusion (BHI) medium containing S. mutans for 24 h and 72 h. After this period, planktonic bacterial cells in the fluid medium in which disks were immersed, and biofilm cells, adhered to the disk surface, were quantified by serial dilution and plating.

[6] = system: gingival epithelial (HGF-1); test: Cell proliferation (MTT) on IL-coated Ti, gingival epithelial cells; type: cell-based; settings: HGF-1, 1 and 7 days
MC3T3-E1 cell line [7] = settings: monocationic analogue of IL1, comparison value; read-out: IC50 of monocationic IL; cited from earlier work

Question: Which IC50 (MC3T3-E1 cell line [1]) does the source give for “1,8-Bis(3-methylimidazolium-1-yl)octane diascorbate [IL-2]” here?
Answer: 3.6 ± 0.6 mM

Question: With “1,8-Bis(3-methylimidazolium-1-yl)octane dihistidine [IL-5]” as the compound, how does the IC50 (MC3T3-E1 cell line [1]) read?
Answer: 25.7 ± 8.7 mM

Question: Which IC50 (MC3T3-E1 cell line [1]) does the source give for “1,8-Bis(3-methylimidazolium-1-yl)octane dileucine [IL-4]” here?
Answer: 12.5 ± 0.2 mM

Question: Which IC50 (MC3T3-E1 cell line [1]) does the source give for “1,8-Bis(3-methylimidazolium-1-yl)octane dimethionine [IL-6]” here?
Answer: 24.2 ± 10.3 mM

Question: With “1,8-Bis(3-methylimidazolium-1-yl)octane diphenylalanine [IL-3]” as the compound, how does the IC50 (MC3T3-E1 cell line [1]) read?
Answer: 8.3 ± 3 mM

Question: What does the source list for “1,8-bis(3-methylimidazolium-1-yl)octane bis (trifluoromethane) sulfonimide [IL-14]”?
Answer: Rh1 hydrodynamic radius [2]: 1.6 nm; Rh2 hydrodynamic radius [2]: 894.6 nm; Thickness of IL film on TiO2 particles ([2]; relaxation mode 1): 0.9 nm; Thickness of IL film on TiO2 particles ([2]; relaxation mode 2): 591.1 nm; Td1 first decomposition temperature ([3]; IL + TiO2 equimolar mixture): 463 °C; Td1 first decomposition temperature ([3]; pure ionic liquid): 473 °C

Question: With `C[n+]1ccn(CCCCCCCCn2cc[n+](C)c2)c1.[Br-].[Br-]` [IL-1, 1,8-bis(3-methylimidazolium-1-yl) octane bromide] as the compound, how does the Rh1 hydrodynamic radius [2] read?
Answer: 0.8 nm

Question: What about the Rh2 hydrodynamic radius [2] of the same compound?
Answer: 421.9 nm

Question: And the “Thickness of IL film on TiO2 particles” value ([2]; relaxation mode 1)?
Answer: 0.2 nm

Question: What about the “Thickness of IL film on TiO2 particles” value ([2]; relaxation mode 2) of the same compound?
Answer: 118.4 nm

Question: And the IC50 (MC3T3-E1 cell line [1]; Mus musculus)?
Answer: 24.6 ± 3.5 mM

Question: And the “Td1 first decomposition temperature” value ([3]; IL + TiO2 equimolar mixture)?
Answer: 310.0 °C

Question: And the “Td2 second decomposition temperature” value ([3]; IL + TiO2 equimolar mixture)?
Answer: 372.9 °C

Question: What about the “Td1 first decomposition temperature” value ([3]; pure ionic liquid) of the same compound?
Answer: 307.5 °C

Question: For `C[n+]1ccn(CCCCCCCCCCn2cc[n+](C)c2)c1.[Br-].[Br-]` [IL-7, 1,10-Bis(3-methylimidazolium-1-yl)decane dibromide], which melting point is on record?
Answer: 130.77 °C

Question: What about the IC50 (MC3T3-E1 cell line [1]; Mus musculus) of the same compound?
Answer: 12.3 ± 0.1 mM

Question: Which IC50 (MC3T3-E1 cell line [1]) does the source give for `C[n+]1ccn(CCCCCCCCCCn2cc[n+](C)c2)c1` [IL-8, 1,10-Bis(3-methylimidazolium-1-yl)decane diascorbate] here?
Answer: 3.1 ± 1.2 mM

Question: For `C[n+]1ccn(CCCCCCCCCCn2cc[n+](C)c2)c1.NC(Cc1ccccc1)C(=O)[O-].NC(Cc1ccccc1)C(=O)[O-]` [IL-9, 1,10-Bis(3-methylimidazolium-1-yl)decane diphenylalanine], which “Cell proliferation versus Ti control” value [4] is on record?
Answer: did not show significant differences

Question: What about the IC50 (MC3T3-E1 cell line [1]) of the same compound?
Answer: 8.5 ± 1.5 mM

Question: What about the “ALP activity / cell differentiation versus Ti control” value [5] of the same compound?
Answer: without statistically significant differences

Question: What about the “Anti-S. mutans activity of coated surface” value (S. mutans; 72 h trial) of the same compound?
Answer: retain significant anti-S. mutans activity

Question: What about the “S. mutans recovered from coated Ti surfaces” value (S. mutans; biofilm cells after 24 h, control Ti ~10^6 CFU) of the same compound?
Answer: ~10^2 CFU

Question: What about the “Cell proliferation versus Ti control” value [6] of the same compound?
Answer: did not show significant differences

Question: With `CC(C)C[C@H](N)C(=O)O.CC(C)C[C@H](N)C(=O)O.C[n+]1ccn(CCCCCCCCCCn2cc[n+](C)c2)c1` [IL-10, 1,10-Bis(3-methylimidazolium-1-yl)decane dileucine] as the compound, how does the IC50 (MC3T3-E1 cell line [1]) read?
Answer: 12.3 ± 0.5 mM

Question: With `C[n+]1ccn(CCCCCCCCCCn2cc[n+](C)c2)c1.N[C@@H](Cc1c[nH]cn1)C(=O)O.N[C@@H](Cc1c[nH]cn1)C(=O)O` [IL-11, 1,10-Bis(3-methylimidazolium-1-yl)decane dihistidine] as the compound, how does the IC50 (MC3T3-E1 cell line [1]) read?
Answer: 12.9 ± 1.1 mM

Question: Which results are given for `CSCC[C@H](N)C(=O)O.CSCC[C@H](N)C(=O)O.C[n+]1ccn(CCCCCCCCCCn2cc[n+](C)c2)c1` [IL-12, 1,10-Bis(3-methylimidazolium-1-yl)decane dimethionine]?
Answer: IC50 (MC3T3-E1 cell line [1]): 13.9 ± 2.7 mM; Antimicrobial activity of coated Ti against S. mutans (S. mutans; 24 h and 72 h immersion): did not show significant antimicrobial activity

Question: Which Rh1 hydrodynamic radius [2] does the source give for `C[n+]1ccn(CCCCCCCCn2cc[n+](C)c2)c1.F[B-](F)(F)F.F[B-](F)(F)F` [IL-13, 1,8-bis(3-methylimidazolium-1-yl) octane tetrafluorborate] here?
Answer: 0.7 nm

Question: And the Rh2 hydrodynamic radius [2]?
Answer: 513.0 nm

Question: And the “Thickness of IL film on TiO2 particles” value ([2]; relaxation mode 1)?
Answer: 0.1 nm

Question: What about the “Thickness of IL film on TiO2 particles” value ([2]; relaxation mode 2) of the same compound?
Answer: 209.5 nm

Question: And the “Td1 first decomposition temperature” value ([3]; IL + TiO2 equimolar mixture)?
Answer: 343.8 °C

Question: And the “Td2 second decomposition temperature” value ([3]; IL + TiO2 equimolar mixture)?
Answer: 455.8 °C

Question: And the “Td1 first decomposition temperature” value ([3]; pure ionic liquid)?
Answer: 346.8 °C

Question: What about the “Td2 second decomposition temperature” value ([3]; pure ionic liquid) of the same compound?
Answer: 455.8 °C

Question: For `CCCCCCCCn1cc[n+](C)c1` [[C8mim][Br]], which IC50 (MC3T3-E1 cell line [7]) is on record?
Answer: 1.51 ± 0.2 mM
